According to patent publication US9695155B2, “Herbicidal substituted pyrimidinyloxy benzene compounds” (E. I. DU PONT DE NEMOURS AND COMPANY, priority 2013, dated 2017):

Columns and labels:
barnyardgrass [1] = assay: Test A preemergence; format: in vivo, Echinochloa crus-galli; conditions: for Barnyardgrass plant response rating (0 to 100 scale): 31 g ai/ha; for Plant response rating, Barnyardgrass: 125 g ai/ha, 0 to 100 scale where 0 is no effect and 100 is complete control
Method in brief: (§1)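 Compounds in non-phytotoxic solvent with surfactant applied as soil spray preemergence, or postemergence to plants 2-10 cm at one- to two-leaf stage, in loam/sand. After approximately 10 days in greenhouse, injury rated visually versus untreated controls, 0 (no effect) to 100 (complete control).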

galium = assay: Test A postemergence; format: in vivo, Galium aparine
Method in brief: as §1

giant foxtail [2] = assay: Test A postemergence; format: in vivo, Setaria faberii
Method in brief: as §1

Italian ryegrass [3] = assay: Test A preemergence; format: in vivo, Lolium multiflorum; conditions: for Ryegrass, Italian plant response rating (0 to 100 scale): 31 g ai/ha; for Plant response rating, Ryegrass, Italian: 125 g ai/ha, 0 to 100 scale where 0 is no effect and 100 is complete control
Method in brief: as §1

blackgrass = assay: Test A postemergence; format: in vivo, Alopecurus myosuroides
Method in brief: as §1

sedge, umbrella = assay: Test B flooded paddy test; format: in vivo, Cyperus difformis; conditions: Flood, 250 g ai/ha; 0 to 100 scale where 0 is no effect and 100 is complete control
Method in brief: (§2)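 Evaluation is visual, against untreated controls, 13 to 15 days after treatment. Before treatment, plants reached the 2-leaf stage; pots were then flooded 3 cm deep, compound was added to the water, and that level was maintained. Ratings run 0 to 100, with 100 meaning complete control.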

barnyardgrass [4] = assay: Test A postemergence; format: in vivo, Echinochloa crus-galli
Method in brief: as §1

barnyardgrass [5] = assay: Test B flooded paddy test; format: in vivo, Echinochloa crus-galli; conditions: Flood, 250 g ai/ha; 0 to 100 scale where 0 is no effect and 100 is complete control
Method in brief: as §2

ragweed [6] = assay: Test A preemergence; format: in vivo, Ambrosia elatior; conditions: for Ragweed plant response rating (0 to 100 scale): 31 g ai/ha; for Plant response rating, Ragweed: 125 g ai/ha, 0 to 100 scale where 0 is no effect and 100 is complete control
Method in brief: as §1

rice = assay: Test B flooded paddy test; format: in vivo, Oryza sativa; conditions: Flood, 250 g ai/ha; 0 to 100 scale where 0 is no effect and 100 is complete control
Method in brief: as §2

Heteranthera limosa = assay: Test B flooded paddy test; format: in vivo; conditions: Flood, 250 g ai/ha; 0 to 100 scale where 0 is no effect and 100 is complete control
Method in brief: as §2

kochia [7] = assay: Test A preemergence; format: in vivo, Kochia scoparia; conditions: for Kochia plant response rating (0 to 100 scale): 31 g ai/ha; for Plant response rating, Kochia: 125 g ai/ha, 0 to 100 scale where 0 is no effect and 100 is complete control
Method in brief: as §1

wheat = assay: Test A postemergence; format: in vivo, Triticum aestivum; conditions: 31 g ai/ha, 0 to 100 scale, 0 no effect, 100 complete control
Method in brief: as §1

corn = assay: Test A postemergence; format: in vivo, Zea mays
Method in brief: as §1

pigweed [8] = assay: Test A preemergence; format: in vivo, Amaranthus retroflexus; conditions: for Pigweed plant response rating (0 to 100 scale): 31 g ai/ha; for Plant response rating, Pigweed: 125 g ai/ha, 0 to 100 scale where 0 is no effect and 100 is complete control
Method in brief: as §1

giant foxtail [9] = assay: Test A preemergence; format: in vivo, Setaria faberii; conditions: for Foxtail, Giant plant response rating (0 to 100 scale): 31 g ai/ha; for Plant response rating, Foxtail, Giant: 125 g ai/ha, 0 to 100 scale where 0 is no effect and 100 is complete control
Method in brief: as §1

ragweed [10] = assay: Test A postemergence; format: in vivo, Ambrosia elatior; conditions: 31 g ai/ha, 0 to 100 scale, 0 no effect, 100 complete control
Method in brief: as §1

pigweed [11] = assay: Test A postemergence; format: in vivo, Amaranthus retroflexus; conditions: 31 g ai/ha, 0 to 100 scale, 0 no effect, 100 complete control
Method in brief: as §1

Italian ryegrass [12] = assay: Test A postemergence; format: in vivo, Lolium multiflorum; conditions: 31 g ai/ha, 0 to 100 scale, 0 no effect, 100 complete control
Method in brief: as §1

kochia [13] = assay: Test A postemergence; format: in vivo, Kochia scoparia
Method in brief: as §1

[14] = 31 g ai/ha, 0 to 100 scale, 0 no effect, 100 complete control
[15] = 125 g ai/ha, 0 to 100 scale where 0 is no effect and 100 is complete control

Compound | Barnyardgrass plant response rating (0 to 100 scale) (barnyardgrass [1]) | Plant response rating, Barnyardgrass (barnyardgrass [1]) | Plant response rating, Galium (galium; [14]) | Plant response rating, Galium (galium; [15]) | Plant response rating, Foxtail, Giant (giant foxtail [2]; [14]) | Plant response rating, Foxtail, Giant (giant foxtail [2]; [15]) | Ryegrass, Italian plant response rating (0 to 100 scale) (Italian ryegrass [3]) | Plant response rating, Ryegrass, Italian (Italian ryegrass [3]) | Plant response rating, Blackgrass (blackgrass; [14]) | Plant response rating, Blackgrass (blackgrass; [15]) | Plant response rating, Sedge, Umbrella (sedge, umbrella) | Plant response rating, Barnyardgrass (barnyardgrass [4]; [14]) | Plant response rating, Barnyardgrass (barnyardgrass [4]; [15]) | Plant response rating, Barnyardgrass (barnyardgrass [5]) | Ragweed plant response rating (0 to 100 scale) (ragweed [6]) | Plant response rating, Ragweed (ragweed [6]) | Plant response rating, Rice (rice) | Plant response rating, Ducksalad (Heteranthera limosa) | Kochia plant response rating (0 to 100 scale) (kochia [7]) | Plant response rating, Kochia (kochia [7]) | other results
Fc1cccc(Oc2ncc(Cl)cn2)c1-n1cc(C2CCCC2)nn1 [Compound 106] | 0 | 40 | 50 | 70 | 50 | 70 | 0 | 0 | 30 | 50 | 90 | 0 | 50 | 0 | 0 | 0 | 0 | 75 | 0 | 0 | Plant response rating, Wheat (wheat): 0; Plant response rating, Corn (corn; [14]): 0; Plant response rating, Corn (corn; [15]): 20; Pigweed plant response rating (0 to 100 scale) (pigweed [8]): 10; Plant response rating, Pigweed (pigweed [8]): 60; Foxtail, Giant plant response rating (0 to 100 scale) (giant foxtail [9]): 30; Plant response rating, Foxtail, Giant (giant foxtail [9]): 70; Plant response rating, Ragweed (ragweed [10]): 20; Plant response rating, Pigweed (pigweed [11]): 50; Plant response rating, Ryegrass, Italian (Italian ryegrass [12]): 0; Plant response rating, Kochia (kochia [13]; [14]): 0; Plant response rating, Kochia (kochia [13]; [15]): 50
CC(C)Cc1cn(-c2c(F)cccc2Oc2ncc(Cl)cn2)nn1 [Compound 107] | 10 | 60 | 30 | 80 | 20 | 70 | 0 | 0 | 10 | 50 | 70 | 0 | 40 | 30 | 0 | 0 | 0 | 40 | 0 | 0 | Plant response rating, Wheat (wheat): 10; Plant response rating, Corn (corn; [14]): 0; Plant response rating, Corn (corn; [15]): 20; Pigweed plant response rating (0 to 100 scale) (pigweed [8]): 0; Plant response rating, Pigweed (pigweed [8]): 50; Foxtail, Giant plant response rating (0 to 100 scale) (giant foxtail [9]): 30; Plant response rating, Foxtail, Giant (giant foxtail [9]): 80; Plant response rating, Ragweed (ragweed [10]): 30; Plant response rating, Pigweed (pigweed [11]): 40; Plant response rating, Ryegrass, Italian (Italian ryegrass [12]): 0; Plant response rating, Kochia (kochia [13]; [14]): 0; Plant response rating, Kochia (kochia [13]; [15]): 20
Fc1cnc(Oc2cccc(Cl)c2-n2cc(OCC(F)(F)F)cn2)nc1 [Compound 109] | 20 | 60 | 50 | 90 | 10 | 70 | 0 | 0 | 20 | 70 | 85 | 10 | 60 | 0 | 0 | 10 | 0 | 80 | 20 | 60 | Plant response rating, Wheat (wheat): 0; Plant response rating, Corn (corn; [14]): 10; Plant response rating, Corn (corn; [15]): 40; Pigweed plant response rating (0 to 100 scale) (pigweed [8]): 100; Plant response rating, Pigweed (pigweed [8]): 100; Foxtail, Giant plant response rating (0 to 100 scale) (giant foxtail [9]): 70; Plant response rating, Foxtail, Giant (giant foxtail [9]): 90; Plant response rating, Ragweed (ragweed [10]): 10; Plant response rating, Pigweed (pigweed [11]): 70; Plant response rating, Ryegrass, Italian (Italian ryegrass [12]): 0; Plant response rating, Kochia (kochia [13]; [14]): 40; Plant response rating, Kochia (kochia [13]; [15]): 60
